Measurements as given in patent US20240262844A1, “PYRIDINIUM SALTS AND METHODS OF USE” (UNIVERSITY OF WYOMING, priority 2023, published 2024).
Several values for one entry are separate records, joined by “and”; a condition that tells them apart may be missing. Identical values can stand only once. Counter-ions that a name gives are not always drawn.

Key:
lysozyme (14.3 kDa) = biological target: T1, lysozyme (14.3 kDa) (Gallus gallus, UniProt P00698); test: Photochemical labeling of lysozyme (LC/MS); type: biochemical, chicken; conditions: for irradiation time to complete reactivity: lysozyme labeling
T1 construct: Lysozyme (from chicken egg white, >40,000 units/mg of protein); purchased Sigma Aldrich; host or cells: chicken egg white
Description: General Procedure B: Photochemical Irradiation of Peptides and Proteins: To a 2 mL Pyrex LC/MS vial (Thermo model #03-391-39) were sequentially added solutions containing the desired biomolecule, glutathione (GSH), pyridinium salt, and ammonium acetate (NH4OAc). The resulting solution was diluted to a final volume of 500 μL and then sparged using nitrogen for a minimum of 30 minutes prior to irradiation. The actively sparging solution was then placed in an EvoluChem™ PhotoRedOx Box photoreactor that was equipped with a Kessil, PR160 427 nm LED Lamp and was then irradiated (100% lamp intensity) for the designated time at room temperature while maintaining active sparging. The resultant reaction mixture was then analyzed directly by LC/MS. Analysis of labeling outcomes using LC/MS was performed either by extracted ion chromatogram intensities (method A) or by integrating the area under the peaks associated with peptide content (method B). These values were totaled, and estimated percentages were assigned according to relative intensities of peaks or ion counts.
Labeling of Lysozyme with Pyridinium Salt 2a (Lysozyme-2a Conjugate). Labeling of lysozyme (14.3 kDa) with the pyridinium salt 2a was performed by following general procedure B using the following solutions: lysozyme (27 μL, 182 μM, 10 μM final concentration), pyridinium salt 2a (200 μL, 500 μM, 200 μM final concentration), NH4+OAc (100 μL, 100 mM, pH=6.9, 20 mM final concentration), glutathione (15 μL, 10 mM, 300 μM final concentration), and water (158 μL) with a 100% intensity irradiation time of 60 minutes. The reaction mixture was analyzed directly by LC/MS using method A and was estimated to have proceeded in >95% conversion and a 10.9:1 mono:di labeled ratio and 10% glutathionylation of all unlabeled and labeled protein content was observed.
Labeling of Lysozyme with Pyridinium Salt 2b (Lysozyme-2b Conjugate). Labeling of lysozyme (14.3 kDa) with the pyridinium salt 2b was performed by following general procedure B using the following solutions: lysozyme (19 μL, 262 μM, 10 μM final concentration), 2b (181 μL, 554 μM, 200 μM final concentration), NH4OAc (50 μL, 200 mM, pH=6.9, 20 mM final concentration), glutathione (50 μL, 3 mM, 300 μM final concentration), and water (200 μL) with a 100% intensity irradiation time of 10 minutes. The reaction mixture was analyzed directly by LC/MS using method A and was estimated to have proceeded with 83% conversion. Partial oxidation at biotin obfuscated estimation of both oxidation and glutathionylation. Lysozyme-2b conjugate (retention time (Tr)=2.80-5.17 min).
Labeling of Lysozyme with Pyridinium Salt 2c (Lysozyme-2c Conjugate). Labeling of lysozyme (14.3 kDa) with the pyridinium salt 2c was performed by following general procedure B using the following solutions: lysozyme (19 μL, 262 μM, 10 μM final concentration), pyridinium salt 2c(367 μL, 680 μM, 500 μM final concentration), NH4OAc (50 μL, 200 mM, pH=6.9, 20 mM final concentration), glutathione (50 μL, 3 mM, 300 μM final concentration), and water (14 μL) with a 100% intensity irradiation time of 10 minutes. The reaction mixture was analyzed directly by LC/MS using method A and was estimated to have proceeded with 85% conversion and a 3.7:1 mono:di labeled ratio and 10% glutathionylation of all protein content was observed. Lysozyme-2c conjugate (retention time (Tr)=3.11-5.07 min).
Labeling of Lysozyme with Pyridinium Salt 2d (Lysozyme-2d Conjugate). Labeling of lysozyme (14.3 kDa) with the pyridinium salt 2d was performed by following general procedure B using the following solutions: Lysozyme (16.8 μL, 0.297 mM solution in H2O, final concentration […]), pyridinium salt 2d (91.8 μL, 1.09 mM solution in CH3CN/H2O (2:3), final concentration 200 μM), NH4OAc (50 μL, 200 mM in H2O, final concentration 20 mM, pH 6.9), glutathione (15 μL, 10 mMsolution in H2O, final concentration 300 μM), and water (326.4 μL) with a 100% intensity irradiation time of 20 minutes. […]

[1] = Fluorescence lifetime and emission measurements; type: physicochemical
Description: The emission spectra were generated by excitation of a 10 μM solution of either pyridinium salt 2a or pyridinium salt 2b in H2O. Analyses were performed at 375 nm excitation with an emission slit width of 5 nm and an excitation slit width of 5 nm. The emission wavelength was gathered from 400 nm to 600 nm.
FIGS. 9A-9D show fluorescence decay spectra of pyridinium salts 2a and 2b in selected solvents according to at least one embodiment of the present disclosure. Specifically, FIG. 9A is a fluorescence decay spectrum of pyridinium salt 2a in 1,2-dichloroethane, FIG. 9B is a fluorescence decay spectrum of pyridinium salt 2a in CH3CN, FIG. 9C is a fluorescence decay spectrum of pyridinium salt 2a in H2O, and FIG. 9D is a fluorescence decay spectrum of pyridinium salt 2b in H2O. The fluorescent decay spectra were generated with a 1-10 μM solution of pyridinium salt (10 μM for H2O and 1 μM for other solvents) using a GG420 long pass filter and a 375 nm excitation wavelength. The instrument response factor was measured using a highly diluted solution of LUDOX AS-30 colloidal silica in water and a ND1.0 filter. The concentration of LUDOX and the emission slit width were adjusted until the intensity of the instrument response function (IRF) was similar to the fluorescent decay intensity. The procedure given in the EasyLife X User's Manual was followed.

T1 sequence (P00698 19-147): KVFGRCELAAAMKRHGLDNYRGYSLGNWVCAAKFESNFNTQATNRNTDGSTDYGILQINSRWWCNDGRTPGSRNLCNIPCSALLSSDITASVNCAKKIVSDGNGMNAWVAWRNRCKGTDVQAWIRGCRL

| relative fluorescence quantum yield (ΦF1) pyridinium salt 2b: pyridinium salt 2a ([1]; 10 μM in H2O, 375 nm excitation) | glutathionylation of all unlabeled and labeled protein content (lysozyme (14.3 kDa); 200 μM pyridinium salt 2d, 300 μM glutathione, 20 minutes irradiation) | SMILES | irradiation time to complete reactivity (lysozyme (14.3 kDa)) | fluorescence lifetime τ1 ([1]; water, 375 nm excitation) | fluorescence lifetime τ2 ([1]; water, 375 nm excitation) | conversion (lysozyme (14.3 kDa); 10 μM lysozyme, 200 μM pyridinium salt 2a, 300 μM glutathione, 20 mM NH4OAc pH 6.9, 427 nm, 60 minutes) | glutathionylation of all unlabeled and labeled protein content (lysozyme (14.3 kDa); 200 μM pyridinium salt 2a, 300 μM glutathione, 60 minutes irradiation) | fluorescence lifetime τ1 ([1]; 1,2-dichloroethane, 375 nm excitation) | fluorescence lifetime τ1 ([1]; acetonitrile, 375 nm excitation) | diffusion distance of the excited state (2a*) ([1]; aqueous systems) |
| --- | --- | --- | --- | --- | --- | --- | --- | --- | --- | --- |
| 3.3 | – | COc1ccc2cc(-c3cc(C)[n+](N(C)C(=O)OCCCCC[C@H]4SC[C@H]5NC(=O)N[C@H]54)c(C)c3)ccc2c1 (stereo in doubt) [Pyridinium salt 2b, 4-(6-methoxynaphthalen-2-yl)-2,6-dimethyl-1-(methyl(((5-((3aR,4R,6aS)-2-oxohexahydro-1H-thieno[3,4-d]imidazol-4-yl)pentyl)oxy)carbonyl)amino)pyridin-1-ium tetrafluoroborate] | less than 10 min | 0.5 ns | 2.8 ns | – | – | – | – | – |
| – | – | COC(=O)N(C)[n+]1c(C)cc(-c2ccc3cc(OC)ccc3c2)cc1C [Pyridinium salt 2a, 1-((methoxycarbonyl)(methyl)amino)-4-(6-methoxynapthalen-2-yl)-2,6-dimethylpyridin-1-ium tetrafluoroborate] | about 60 min | 0.2548 ns and 0.3 ns | 3.399 ns and 3.4 ns | > 95% and 94% | 10% | 4.1 ns | 3.3 ns | ≤ 30 Å |
| – | 3% and 2% | COc1ccc2cc(-c3cc(C)[n+](N(C)C(=O)OCCCCCCN=[N+]=[N-])c(C)c3)ccc2c1 [Pyridinium salt 2d, 1-((((6-azidohexyl)oxy)carbonyl)(methyl)amino)-4-(6-methoxynaphthalen-2-yl)-2,6-dimethylpyridin-1-ium tetrafluoroborate] | – | – | – | – | – | – | – | – |
